The values below come from US20160045625A1, “[11C] AND [18F] LABELED 1,3-DIPHENYL-5-(PYRIMIDIN-2-YL)-PYRIDIN-2(1H)-ONE DERIVATIVES AND THEIR USE FOR PET IMAGING OF THE AMPA RECEPTOR” (EISAI R&D MANAGEMENT CO., LTD., priority 2013, published 2016).

The structures appear in SMILES notation.

Data set [1] has as its system AMPA receptor. To be noted: in vivo PET, rat; cited from earlier work.
Data set [2] deals with AMPA receptor. Put plainly: In vivo PET blocking study in monkey. Set-up: species or system Rhesus monkey. The note with it: i.v. pretreatment 0.02 to 0.1 mg/kg, 15 min prior to radioligand (Example 4); CTX, HIP, CER, THA, STR. How it is done: FIG. 4. Rhesus monkey PET blocking study of the compound of Example 4. In vivo area under time-radioactivity curves of to the region of interests (CTX, HIP, cerebellum (CER), thalamus (THA), striatum (STR)) in the absence (control) and blockade by pretreatment with the unlabeled compound. Radioactivity is expressed as percentage of standardized uptake value (% SUV) and integrated radioactivity of the specific binding versus reference region (brain stem; BS) from 0 to 40 min during the PET scan.
For the PET blocking study, unlabeled compound (Reference Example 9, 0.1 mg/kg/5 mL to 0.02 mg/kg/5 mL of saline with 10% DMSO, 3 doses) was intravenously administrated via the crural vein as a single slow bolus over 10 min, 15 min prior to radioligand administration. All PET scans were acquired from the same two monkeys (n=2).
Area under time-radioactivity curves of to the region of interests (CTX, HIP, cerebellum (CER), thalamus (THA), STR) in the absence (control) and blockade by pretreatment with Reference Example 9. Radioactivity is expressed as percentage of standardized uptake value (% SUV) and integrated radioactivity from 0 to 40 min during the PET scan.

Data set [3] concerns the target AMPA receptor. The experiment in a line: In vitro receptor binding assay ([^3H]perampanel, Ki value measurement). Also noted: species or system rat (Sprague-Dawley). The note with it: rat forebrain membranes, 90 min at 4° C., Scatchard analysis. The protocol: Homogenate of forebrains of rats (Sprague-Dawley) was prepared in ice-cold solution containing 0.32 M sucrose and 0.1 mM EGTA (pH 7.4). Homogenate was centrifuged in 1000 g for 10 min and supernatant was collected. This supernatant was centrifuged in 30000 g for 20 min. Precipitate was suspended in 1 mM EGTA/Tris buffer (pH 8.0) by sonication, subjected osmotic lysis on ice for 10 min and centrifuged in 30000 g for 20 min. This procedure was conducted twice. Precipitate was suspended in 50 mM Tris HCl buffer (pH 7.4) by sonication and centrifuged in 30000 g for 20 min. This procedure was conducted three times. Precipitate was suspended in 50 mM Tris HCl buffer (pH 7.4) by sonication and stocked at −80° C. On the day of binding assay, stocked solution was suspended in 50 mM Tris HCl buffer (pH 7.4) by sonication and centrifuged in 30000 g for 20 min. This procedure was conducted three times. Precipitate was suspended in 50 mM Tris-HCl buffer (pH 7.4) by sonication and used for binding assay.
Receptor solution was re-suspended in binding buffer (50 mM Tris-HCl, pH 7.4) to a final concentration of 0.24 mg tissue eq./assay. The incubation time for [^3H]perampanel on AMPA receptor was 90 min at 4° C. After incubation, membranes were filtered onto GF/B filter presoaked with 0.3% PEI and washed three times with ice-cold wash buffer (same as binding buffer). Each filter was placed in a vial and 6 mL of liquid scintillator reagent (Hionic-Fluor; PerkinElmer Life & Analytical Sciences) were added. Radioactivity was counted (1 min) in a liquid scintillation counter (LSC-6100, Hitachi Aloka Medical, Ltd.).
Saturation isotherms were determined by addition of various concentrations of [^3H]perampanel (1-2000 nM). Nonspecific bindings for [^3H]perampanel was measured in the presence of 15 μM unlabeled compounds. Ki value was calculated by Scatchard analysis of saturation isotherm experiment.

Turning to `COc1cc2c(cc1O[11CH3])C(c1ccc(Cl)cc1)N(C(C)=O)CC2` (stereo not shown) [N-acetyl-1-(4-chlorophenyl)-6-methoxy-7-[^11C]methoxy-1,2,3,4-tetrahydroisoquinoline], in data set [1], the “clearance from the CNS” value is “rapid clearance from the CNS” and the specific binding result is on record as “low specific binding”.
As usually defined, the Ki is the dissociation constant of the complex between target and ligand, obtained from inhibition or displacement. Take `CNc1cccc(-n2cc(-c3ncccn3)cc(-c3ccccc3C#N)c2=O)c1` [Reference Example 9, 2-(1-(3-(methylamino)phenyl)-2-oxo-5-(pyrimidin-2-yl)-1,2-dihydropyridin-3-yl)benzonitrile]: the “radioactivity (area under time-radioactivity curves, % SUV, 0 to 40 min) compared to control” value in data set [2] is listed as “markedly reduced the radioactivity in dose dependent manner”. In data set [3], this molecule gave a Ki of 10 nM.
On to `N#Cc1ccccc1-c1cc(-c2ncccn2)cn(-c2cccc(F)c2)c1=O` [Reference Example 15, 2-(1-(3-fluorophenyl)-2-oxo-5-(pyrimidin-2-yl)-1,2-dihydropyridin-3-yl)benzonitrile], for which the affinity in data set [3], expressed as Ki, was 20 nM.
On the same count and under the same terms, in the case of `N#Cc1ccccc1-c1cc(-c2ncccn2)cn(-c2ccc(F)c(N)c2)c1=O` [Reference Example 19, 2-(1-(3-amino-4-fluorophenyl)-2-oxo-5-(pyrimidin-2-yl)-1,2-dihydropyridin-3-yl)benzonitrile] it was 5 nM.
`O=c1c(-c2ccccc2F)cc(-c2ncccn2)cn1-c1cccc(CF)c1` [Reference Example 22, 3-(2-fluorophenyl)-1-(3-(fluoromethyl)phenyl)-5-(pyrimidin-2-yl)pyridin-2(1H)-one] yielded a Ki in data set [3] of 22 nM.
